Test results reported in ChEMBL document CHEMBL5143511, “Positioning of an unprecedented 1,5-oxaza spiroquinone scaffold into SMYD2 inhibitors in epigenetic space” (Eur J Med Chem, 2022).
Values belong to the molecule of their own block, whether it stands above or below them.

How the values were obtained:
[1] = molecular target: T1, N-lysine methyltransferase SMYD2 (Homo sapiens, UniProt Q9NRG4); assay: Inhibition of SMYD2 (unknown origin) assessed as residual activity at 10 uM using 3H-SAM as substrate incubated for 1 hr by filter binding method relative to control
T1 sequence (Q9NRG4 whole entry): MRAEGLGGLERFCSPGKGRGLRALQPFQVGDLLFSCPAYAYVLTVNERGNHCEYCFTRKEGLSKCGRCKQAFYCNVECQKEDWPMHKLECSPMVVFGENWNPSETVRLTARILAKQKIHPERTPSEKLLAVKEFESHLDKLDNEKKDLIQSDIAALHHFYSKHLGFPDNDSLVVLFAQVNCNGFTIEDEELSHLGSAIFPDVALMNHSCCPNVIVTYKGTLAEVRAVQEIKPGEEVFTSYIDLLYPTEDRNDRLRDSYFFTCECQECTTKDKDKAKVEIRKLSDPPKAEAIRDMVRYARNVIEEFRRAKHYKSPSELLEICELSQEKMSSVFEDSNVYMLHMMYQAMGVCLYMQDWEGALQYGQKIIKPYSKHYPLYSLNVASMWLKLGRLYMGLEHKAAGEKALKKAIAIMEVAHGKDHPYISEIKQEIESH

[2] = molecular target: T1, N-lysine methyltransferase SMYD2; assay: Inhibition of SMYD2 (unknown origin) using 3H-SAM as substrate incubated for 1 hr by filter binding method
[3] = test system: Ca-Ski; assay: cells; assay type: functional, cell-based; details: Homo sapiens, 72 h
Description: Antiproliferative activity against human Ca-Ski cells assessed as inhibition of cell growth incubated for 72 hrs by CellTiter-Glo luminescent cell viability assay

[4] = test system: MDA-MB-231; assay: Antiproliferative activity against human MDA-MB-231 cells assessed as inhibition of cell growth incubated for 72 hrs by CellTiter-Glo luminescent cell viability assay; assay type: functional, cell-based; details: MDA-MB-231, 72 h
[5] = test system: HEK293; assay: Induction of apoptosis in HEK293 cells assessed as increase in cleaved PARP level at 0.0195 to 10 uM incubated for 24 hrs by immunoblot analysis; assay type: toxicity, cell-based; details: human, hek293, 24 h, dose 0.0195-10 µM
[6] = AUClast in ICR mouse at 40 mg/kg, ip administered as vehicle 2 as corn oil suspension measured upto 1440 mins by LC-MS/MS analysis; assay type: ADME, organism-based; design: dose 40 mg/kg, time < 1440 min, route ip; details: in vivo
[7] = Drug metabolism in liver microsomes (unknown origin) assessed as M-56 metabolite formation by LC-MS/MS analysis; assay type: ADME, Microsome
[8] = test system: MDA-MB-453; assay: cells; assay type: functional, cell-based; details: Homo sapiens, MDA-MB-453, 72 h
Description: Antiproliferative activity against human MDA-MB-453 cells assessed as inhibition of cell growth incubated for 72 hrs by CellTiter-Glo luminescent cell viability assay

[9] = test system: MDA-MB-453; assay: Antitumor activity against human MDA-MB-453 cells xenografted in BALB/c nude mouse assessed as tumor growth inhibition rate at 40 mg/kg, ip measured after 15 days relative to control; assay type: functional; details: MDA-MB-453, 360 h, time 15 day, read-out: TGI
[10] = Drug metabolism in liver microsomes (unknown origin) assessed as M-254 metabolite formation by LC-MS/MS analysis; assay type: ADME, Microsome
[11] = Drug metabolism in liver microsomes (unknown origin) assessed as M-115 metabolite formation by LC-MS/MS analysis; assay type: ADME, Microsome
[12] = Drug uptake in ICR mouse plasma assessed as time required to reach higher drug level at 40 mg/kg, ip administered as vehicle 1 as DMSO/Cremophor EL/ PEG400/ DDW formulation measured upto 1440 mins by HPLC analysis; assay type: ADME, organism-based
[13] = Drug metabolism in liver microsomes (unknown origin) assessed as M-78 metabolite formation by LC-MS/MS analysis; assay type: ADME, Microsome
[14] = Terminal half life in ICR mouse at 40 mg/kg, ip administered as vehicle 1 as DMSO/Cremophor EL/ PEG400/ DDW formulation measured upto 1440 mins by LC-MS/MS analysis; assay type: ADME, organism-based; details: in vivo, read-out: beta t1/2
[15] = Drug metabolism in liver microsomes (unknown origin) assessed as M+18 metabolite formation by LC-MS/MS analysis; assay type: ADME, Microsome
[16] = test system: MDA-MB-453; assay: Antitumor activity against human MDA-MB-453 cells xenografted in BALB/c nude mouse assessed as reduction in tumor volume at 40 mg/kg, ip measured every 3 days for 15 days by caliper method (reference value: 177 +/- 19 mm3); assay type: functional; details: time 15 day
[17] = Metabolic stability in mouse liver microsomes assessed as parent compound remaining at 5 uM preincubated for 5 mins with NADPH followed by compound addition and measured after 15 mins by LC-MS/MS analysis; assay type: ADME, Microsome; details: read-out: Stability
[18] = test system: MDA-MB-453; assay: Antitumor activity against human MDA-MB-453 cells xenografted in BALB/c nude mouse assessed as reduction in tumor volume at 40 mg/kg, ip measured every 3 days for 8 days by caliper method (reference value: 152+/- 11 mm3); assay type: functional; details: time 8 day
[19] = test system: MDA-MB-453; assay: Antitumor activity against human MDA-MB-453 cells xenografted in ip dosed BALB/c nude mouse assessed as reduction in tumor growth measured after 15 days; assay type: functional; details: MDA-MB-453, 360 h, time 15 day
[20] = Terminal half life in ICR mouse at 40 mg/kg, ip administered as vehicle 2 as corn oil suspension measured upto 1440 mins by LC-MS/MS analysis; assay type: ADME, organism-based; details: in vivo, read-out: beta t1/2
[21] = Tmax in ICR mouse at 40 mg/kg, ip administered as vehicle 2 as corn oil suspension measured upto 1440 mins by LC-MS/MS analysis; assay type: ADME, organism-based; details: in vivo
[22] = AUCinfinity in ICR mouse at 40 mg/kg, ip administered as vehicle 1 as DMSO/Cremophor EL/ PEG400/ DDW formulation measured upto 1440 mins by LC-MS/MS analysis; assay type: ADME, organism-based; design: dose 40 mg/kg, time < 1440 min, route ip; details: in vivo
[23] = AUClast in ICR mouse at 40 mg/kg, ip administered as vehicle 1 as DMSO/Cremophor EL/ PEG400/ DDW formulation measured upto 1440 mins by LC-MS/MS analysis; assay type: ADME, organism-based; design: time < 1440 min, dose 40 mg/kg, route ip; details: in vivo
[24] = test system: MDA-MB-453; assay: Antitumor activity against human MDA-MB-453 cells xenografted in BALB/c nude mouse assessed as reduction in tumor volume at 40 mg/kg, ip measured every 3 days for 11 days by caliper method (reference value: 168 +/- 16 mm3); assay type: functional; details: time 11 day
[25] = AUCinfinity in ICR mouse at 40 mg/kg, ip administered as vehicle 2 as corn oil suspension measured upto 1440 mins by LC-MS/MS analysis; assay type: ADME, organism-based; design: time < 1440 min, dose 40 mg/kg, route ip; details: in vivo
[26] = test system: HEK293; assay: Induction of apoptosis in HEK293 cells assessed as increase in cleaved PARP level incubated for 24 hrs by immunoblot analysis; assay type: toxicity, cell-based; details: human, hek293, 24 h, DDE = dose-dependent effect, dose 0.0195-10 µM
[27] = test system: MDA-MB-453; assay: Antitumor activity against human MDA-MB-453 cells xenografted in BALB/c nude mouse assessed as reduction in tumor weight at 40 mg/kg, ip measured after 15 days (reference value: 0.038 +/- 0.02 g); assay type: functional; details: time 15 day
[28] = Toxicity in […] xenografted with human MDA-MB-453 cells assessed as body weight loss at 40 mg/kg, ip administered as DMSO/Cremophor EL/ PEG400/ DDW formulation and measured after 4 days; assay type: organism-based; details: in vivo, 96 h, time 4 day
[29] = Cmax in ICR mouse at 40 mg/kg, ip administered as vehicle 2 as corn oil suspension measured upto 1440 mins by LC-MS/MS analysis; assay type: ADME, organism-based; design: time < 1440 min, dose 40 mg/kg, route ip; details: in vivo
[30] = Drug concentration in ICR mouse plasma at 40 mg/kg, ip administered as vehicle 2 as corn oil suspension measured upto 1440 mins by HPLC analysis; assay type: ADME, organism-based
[31] = test system: MDA-MB-453; assay: Antitumor activity against human MDA-MB-453 cells xenografted in BALB/c nude mouse assessed as reduction in tumor volume at 40 mg/kg, ip measured on day 1 by caliper method (reference value: 137 +/- 10 mm3); assay type: functional; details: time 1 day
[32] = test system: MDA-MB-453; assay: Antitumor activity against human MDA-MB-453 cells xenografted in BALB/c nude mouse assessed as reduction in tumor volume at 40 mg/kg, ip measured on day 4 by caliper method (reference value: 145 +/- 11 mm3); assay type: functional; details: time 4 day
[33] = Cmax in ICR mouse at 40 mg/kg, ip administered as vehicle 1 as DMSO/Cremophor EL/ PEG400/ DDW formulation measured upto 1440 mins by LC-MS/MS analysis; assay type: ADME, organism-based; design: dose 40 mg/kg, time < 1440 min, route ip; details: in vivo
[34] = Tmax in ICR mouse at 40 mg/kg, ip administered as vehicle 1 as DMSO/Cremophor EL/ PEG400/ DDW formulation measured upto 1440 mins by LC-MS/MS analysis; assay type: ADME, organism-based; details: in vivo

Activity [1]: 74.2% | IC50 [2]: > 20 µM
SMILES: CN1C(=O)C(CCNc2cccnc2)COC12C=CC(=O)C=C2 (configuration not stated)

Activity [1]: 96.5% | IC50 [2]: > 20 µM
SMILES: CC1COC2(C=CC(=O)C=C2)N(C(C)C)C1=O (configuration not stated)

Activity [1]: 41.4% | IC50 [2]: > 20 µM
SMILES: CC(C)N1C(=O)C(Cc2ccc(Cl)cc2)COC12C=CC(=O)C=C2 (configuration not stated)

Activity [1]: 6.94% | IC50 [3]: 0.785 µM | IC50 [2]: 2.13 µM | IC50 [4]: 0.667 µM
SMILES: CN1C(=O)C(CCNc2cc(C(F)(F)F)cc(C(F)(F)F)c2)COC12C=CC(=O)C=C2 (configuration not stated)

Activity [1]: 80.7% | IC50 [2]: > 20 µM
SMILES: CC(C)N1C(=O)C(Cc2ccc(C#N)cc2)COC12C=CC(=O)C=C2 (configuration not stated)

Activity [1]: 53.5% | IC50 [2]: 7.52 µM
SMILES: CN1C(=O)C(CCNc2cc(F)cc(C(F)(F)F)c2)COC12C=CC(=O)C=C2 (configuration not stated)

Activity [1]: 64.6% | IC50 [2]: > 20 µM
SMILES: CN1C(=O)C(CCNc2cnc3ccccc3c2)COC12C=CC(=O)C=C2 (configuration not stated)

Activity [1]: 13.6% | IC50 [2]: 6.2 µM
SMILES: CN1C(=O)C(CCNc2cccc(Cc3ccccc3)c2)COC12C=CC(=O)C=C2 (configuration not stated)

Activity [1]: 20.6% | IC50 [2]: 11.6 µM
SMILES: CN1C(=O)C(CCNc2ccc(F)cc2)COC12C=CC(=O)C=C2 (configuration not stated)

Activity [1]: 33.8% | IC50 [2]: > 20 µM
SMILES: CC(C)N1C(=O)C(Cc2ccc(C(F)(F)F)cc2)COC12C=CC(=O)C=C2 (configuration not stated)

Activity [1]: 27.8% | IC50 [2]: > 20 µM
SMILES: CC(C)N1C(=O)C(Cc2cc(C(F)(F)F)ccc2Cl)COC12C=CC(=O)C=C2 (configuration not stated)

Activity [1]: 12.6% | IC50 [2]: 3.82 µM
SMILES: CN1C(=O)C(CCNc2ccc(Cl)c(Cl)c2)COC12C=CC(=O)C=C2 (configuration not stated)

IC50 [4]: 13.1 µM
SMILES: O=C1COc2c(CCNCCN(C(=O)CCNCCc3ccc(Cl)c(Cl)c3)C3CCCCC3)ccc(O)c2N1
Activity [5]: Non-Toxic

Activity [1]: 14.2% | IC50 [2]: 5.55 µM
SMILES: COc1ccc(N2CCCCC2)c(NCCC2COC3(C=CC(=O)C=C3)N(C)C2=O)c1 (configuration not stated)

IC50 [3]: 0.879 µM | IC50 [2]: 18.5 µM | IC50 [4]: 1.64 µM
SMILES: O=C1C=CC2(C=C1)OCC(Cc1cc(C(F)(F)F)cc(C(F)(F)F)c1)C(=O)N2c1ccccc1 (configuration not stated)

IC50 [2]: 0.678 µM
SMILES: CC(C)[Si](OCCC1COC2(C=CC(=O)C=C2)N(C)C1=O)(C(C)C)C(C)C (configuration not stated)

AUC(0-t) at 24 h [6]: 1560 ng·h/mL | Drug metabolism [7]: Metabolite_Detected | IC50 [8]: 0.0119 µM | Drug metabolism [10]: Metabolite_Detected | Drug metabolism [11]: Metabolite_Detected | Tmax [12]: 8 h | Drug metabolism [13]: Metabolite_Detected | half-life [14]: 4.83 h | Drug metabolism [15]: Metabolite_Detected | IC50 [3]: 0.18 µM | remaining at 0.25 h, 5 µM [17]: 1.22% | half-life [20]: 15.9 h | Tmax [21]: 1.17 h | AUC(0-inf) [22]: 6050 ng·h/mL | AUC(0-t) at 24 h [23]: 5810 ng·h/mL | AUC(0-inf) [25]: 3130 ng·h/mL | Cmax [29]: 301 ng/mL | concentration at 24 h [30]: 279 ng/mL | IC50 [2]: 0.679 µM | Cmax [33]: 1400 ng/mL | Tmax [34]: 0.25 h | IC50 [4]: 0.0854 µM
SMILES: CN1C(=O)C(CCO[Si](c2ccccc2)(c2ccccc2)C(C)(C)C)COC12C=CC(=O)C=C2 (configuration not stated)
inhibition in vivo at 40 mg/kg [9]: 77.7% | Activity [16]: 67 mm3 | Activity [18]: 105 mm3 | ED50 [19]: < 40 mg/kg | Activity [24]: 87 mm3 | Activity [26]: Dde | Activity [27]: 0.009 g | Activity [28]: Toxic | Activity [31]: 136 mm3 | Activity [32]: 126 mm3

IC50 [2]: 0.399 µM
SMILES: CC(C)N1C(=O)C(CCO[Si](c2ccccc2)(c2ccccc2)C(C)(C)C)COC12C=CC(=O)C=C2 (configuration not stated)
